The record followed here is EP4610269A1, “UROKINASE PLASMINOGEN ACTIVATOR SURFACE RECEPTOR (UPAR) LIGANDS FOR DIAGNOSTIC OR THERAPEUTIC USE” (3B Pharmaceuticals GmbH, priority 2024, dated 2025).

Broadly, the IC50 is the concentration needed to halve the response being measured. The low end stands for inhibition by little substance, the high end for a need for much substance.

Where a SMILES comes first, the peptide text is derived from it. Bridges are numbered along the chain shown (N, C = ends). [ ]: non-standard residue; d: D form. The star is where a group is joined. DOTA = O=C(O)CN1CCN(CC(=O)O)CCN(CC(=O)*)CCN(CC(=O)O)CC1; Phe(4-NO2) = N[C@@H](Cc1ccc([N+](=O)[O-])cc1)C(=O)O; NOTA = O=C(O)CN1CCN(CC(=O)O)CCN(CC(=O)*)CC1; Pro(cis-4-F) = O=C(O)[C@@H]1C[C@H](F)CN1; 2Nal = N[C@@H](Cc1ccc2ccccc2c1)C(=O)O; Dopa = N[C@@H](Cc1ccc(O)c(O)c1)C(=O)O; Ser(ΨH,HPro) = O=C(O)[C@@H]1COCN1; Hyp = O=C(O)[C@@H]1C[C@@H](O)CN1; 3Pal = N[C@@H](Cc1cccnc1)C(=O)O; Pentanoyl(4-Me) = CC(C)CCC(=O)*; Tic = O=C(O)[C@@H]1Cc2ccccc2CN1; Cha = N[C@@H](CC1CCCCC1)C(=O)O; Cit = NC(=O)NCCC[C@H](N)C(=O)O; NMeOrn = CN[C@@H](CCCN)C(=O)O; Butoxycarbonyl = CCCCOC(=O)*; Ac6c = NC1(C(=O)O)CCCCC1; Nva = CCC[C@H](N)C(=O)O; Pentanoyl = CCCCC(=O)*

Assay [1] has as its target T1, uPAR-expressing HEC-265 human endometrial adenocarcinoma cells (Homo sapiens, UniProt Q03405).
T1 construct: Cell surface uPAR-expressing HEC-265 human endometrial adenocarcinoma cells; host or cells: HEC-265
Description: Competitive FACS binding assay. The settings on record: pIC50 category of FACS binding. In short, it runs like this: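 HEC-265 cells incubated 1 h at 4 °C with 10 nM biotinylated uPAR peptide tracer plus increasing test compound, then stained with APC-streptavidin on ice. Median APC fluorescence by flow cytometry; 4PL fit gives pIC50.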

The target in assay [2] is T2, human uPAR (uPAR-Fc) (Homo sapiens, UniProt Q03405).
T2 construct: comprising amino acids Leu23-Arg303 according to UniProt entry Q03405.1; purchased R&D Systems 10378-UK-100
T2 sequence (Q03405 23-303): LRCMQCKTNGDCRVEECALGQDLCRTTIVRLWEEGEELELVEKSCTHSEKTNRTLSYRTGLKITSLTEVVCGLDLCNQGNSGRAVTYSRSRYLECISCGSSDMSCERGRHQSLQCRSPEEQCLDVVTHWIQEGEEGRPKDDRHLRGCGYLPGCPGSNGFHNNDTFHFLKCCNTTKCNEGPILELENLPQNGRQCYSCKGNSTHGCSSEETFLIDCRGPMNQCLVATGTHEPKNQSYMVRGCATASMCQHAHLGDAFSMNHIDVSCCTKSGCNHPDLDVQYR
Description: Surface plasmon resonance (SPR) assay, single cycle kinetics. The class given is binding. The following applies: pKD category for uPAR SPR activity assay; uPAR-Fc on Protein A-Chip, 25°C; read-out: pKD CAT (converted). In outline: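 uPAR-Fc (Leu23-Arg303 extracellular domains, human IgG1 Fc) captured on Protein A chip to ~2000 RU; single-cycle kinetics at 25°C in HEPES running buffer pH 7.4 with 0.1% DMSO. KD from double-referenced sensorgrams fitted to 1:1 Langmuir model, reported as pKD.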

T1 sequence (Q03405 23-335): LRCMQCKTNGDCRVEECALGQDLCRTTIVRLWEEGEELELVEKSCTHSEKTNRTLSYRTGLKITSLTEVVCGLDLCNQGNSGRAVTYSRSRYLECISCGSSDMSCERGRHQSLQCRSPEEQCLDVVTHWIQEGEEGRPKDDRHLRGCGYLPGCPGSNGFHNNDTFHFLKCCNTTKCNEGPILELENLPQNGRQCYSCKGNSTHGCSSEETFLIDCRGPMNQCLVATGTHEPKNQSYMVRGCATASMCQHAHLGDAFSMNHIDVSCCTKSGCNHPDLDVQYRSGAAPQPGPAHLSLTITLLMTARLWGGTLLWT

The compound `CCCCC(=O)N[C@H]1CSSC[C@@H](C(N)=O)NC(=O)[C@H](CCC)NC(=O)[C@H]([C@@H](C)CC)NC(=O)[C@@H]2C[C@@H](O)CN2C(=O)[C@@H]2CCCN2C(=O)[C@H](Cc2ccccc2)NC(=O)[C@H](Cc2ccc(O)cc2)NC(=O)[C@H](CCCCNC(=O)CN2CCN(CC(=O)O)CCN(CC(=O)O)CCN(CC(=O)O)CC2)NC(=O)[C@H](CCCNC(=O)CCCC(=O)NCCOCCOCCOCCOCCC(=O)NC(COCCC(=O)NCCOCCOCCOCCOCCOCCOCCOCCOCCOCCOCCOCCOC)(COCCC(=O)NCCOCCOCCOCCOCCOCCOCCOCCOCCOCCOCCOCCOC)COCCC(=O)NCCOCCOCCOCCOCCOCCOCCOCCOCCOCCOCCOCCOC)NC1=O` [UPAR-247, Pent-[Cys-Orn(TrisPEG)-Lys(DOTA)-Tyr-Phe-Pro-Hyp-Ile-Nva-Cys]-NH2] showed an IC50 in assay [1] of 12.6 to 31.6 nM. Moreover, the Kd in assay [2] is 10 to 100 nM.
For `CCCCOC(=O)N[C@H]1CSSC[C@@H](C(N)=O)NC(=O)[C@H](CCC)NC(=O)[C@H]([C@@H](C)CC)NC(=O)[C@@H]2C[C@@H](O)CN2C(=O)[C@@H]2CCCN2C(=O)[C@H](Cc2ccccc2)NC(=O)[C@H](Cc2ccc(O)cc2)NC(=O)[C@H](CCCCNC(=O)CN2CCN(CC(=O)O)CCN(CC(=O)O)CCN(CC(=O)O)CC2)NC(=O)[C@H]([C@@H](C)O)NC1=O` [UPAR-248, Butoc-[Cys-Thr-Lys(DOTA)-Tyr-Phe-Pro-Hyp-Ile-Nva-Cys]-NH2] (Butoxycarbonyl-CTK(DOTA)YFP[Hyp]I[Nva]C-NH2; disulfide 1-10), in that order: at most 10 nM and under 1.58 nM.
For `CCCCOC(=O)N[C@H]1CSSC[C@@H](C(N)=O)NC(=O)[C@H](CCC)NC(=O)[C@H]([C@@H](C)CC)NC(=O)[C@@H]2C[C@@H](O)CN2C(=O)[C@@H]2C[C@H](F)CN2C(=O)[C@H](Cc2ccccc2)NC(=O)[C@H](Cc2ccc(O)c(O)c2)NC(=O)[C@H](CCCCNC(=O)CN2CCN(CC(=O)O)CCN(CC(=O)O)CC2)NC(=O)[C@H]([C@@H](C)O)NC1=O` [UPAR-250, Butoc-[Cys-Thr-Lys(NOTA)-Dopa-Phe-4Cfp-Hyp-Ile-Nva-Cys]-NH2] (Butoxycarbonyl-CTK(NOTA)[Dopa]F[Pro(cis-4-F)][Hyp]I[Nva]C-NH2; disulfide 1-10), in that order: at most 10 nM and under 1.58 nM.
In turn, `CCCCC(=O)N[C@H]1CSSC[C@@H](C(N)=O)NC(=O)[C@H](CCC)NC(=O)[C@H]([C@@H](C)CC)NC(=O)[C@@H]2C[C@@H](O)CN2C(=O)[C@@H]2CCCN2C(=O)[C@@H]2Cc3ccccc3CN2C(=O)[C@H](Cc2ccc(O)cc2)NC(=O)[C@H](CCCCNC(=O)CN2CCN(CC(=O)O)CCN(CC(=O)O)CCN(CC(=O)O)CC2)NC(=O)[C@H](CCCNC(N)=O)NC1=O` [UPAR-252, Pent-[Cys-Cit-Lys(DOTA)-Tyr-Tic-Pro-Hyp-Ile-Nva-Cys]-NH2] (Pentanoyl-C[Cit]K(DOTA)Y[Tic]P[Hyp]I[Nva]C-NH2; disulfide 1-10) showed an IC50 in assay [1] of at least 126 nM. The Kd in assay [2] was over 100 nM.
For `CCCCC(=O)N[C@H]1CSSC[C@@H](C(N)=O)NC(=O)[C@H](CCC)NC(=O)[C@H]([C@@H](C)CC)NC(=O)[C@@H]2C[C@@H](O)CN2C(=O)[C@@H]2CCCN2C(=O)[C@H](Cc2cccnc2)NC(=O)[C@H](Cc2ccc(O)cc2)NC(=O)[C@H](CCCCNC(=O)CN2CCN(CC(=O)O)CCN(CC(=O)O)CCN(CC(=O)O)CC2)NC(=O)[C@H](CCCNC(N)=O)NC1=O` [UPAR-253, Pent-[Cys-Cit-Lys(DOTA)-Tyr-Mpa-Pro-Hyp-Ile-Nva-Cys]-NH2] (Pentanoyl-C[Cit]K(DOTA)Y[3Pal]P[Hyp]I[Nva]C-NH2; disulfide 1-10), in that order: at most 10 nM and 1.58 to 10 nM.
On the same counts, the results for `CC[C@H](C)[C@@H]1NC(=O)[C@@H](C)NC(=O)[C@@H]2CCCN2C(=O)[C@H](Cc2ccccc2)NC(=O)[C@H](Cc2ccc(O)cc2)NC(=O)[C@H](CCC(=O)O)NC(=O)[C@H](CCCNC(N)=O)NC(=O)[C@@H](NC(=O)CCC(C)C)CSSC[C@@H](C(N)=O)NC(=O)[C@H](CC(C)C)NC1=O` [UPAR-255, iHex-[Cys-Cit-Glu-Tyr-Phe-Pro-ala-Ile-Leu-Cys]-NH2] ({Pentanoyl(4-Me)}-C[Cit]EYFP[dA]ILC-NH2; disulfide 1-10) are at most 10 nM and under 1.58 nM.
For `CC[C@H](C)[C@@H]1NC(=O)[C@@H](C)NC(=O)[C@@H]2CCCN2C(=O)[C@H](Cc2ccccc2)NC(=O)[C@H](Cc2ccc(O)cc2)NC(=O)[C@H](CCCCNC(=O)CN2CCN(CC(=O)O)CCN(CC(=O)O)CCN(CC(=O)O)CC2)NC(=O)[C@H](CCCNC(N)=O)NC(=O)[C@@H](NC(=O)CCC(C)C)CSSC[C@@H](C(N)=O)NC(=O)[C@H](CC(C)C)NC1=O` [UPAR-256, iHex-[Cys-Cit-Lys(DOTA)-Tyr-Phe-Pro-ala-Ile-Leu-Cys]-NH2] ({Pentanoyl(4-Me)}-C[Cit]K(DOTA)YFP[dA]ILC-NH2; disulfide 1-10), in that order: at most 10 nM and under 1.58 nM.
As to `CCCCC(=O)N[C@H]1CSSC[C@@H](C(N)=O)NC(=O)[C@H](CCC)NC(=O)[C@H]([C@@H](C)CC)NC(=O)[C@@H]2C[C@@H](O)CN2C(=O)[C@@H]2CCCN2C(=O)[C@H](Cc2ccccc2)NC(=O)[C@H](Cc2ccc([N+](=O)[O-])cc2)NC(=O)[C@H](CCCCNC(=O)CN2CCN(CC(=O)O)CCN(CC(=O)O)CCN(CC(=O)O)CC2)NC(=O)[C@H](CCCNC(N)=O)NC1=O` [UPAR-257, Pent-[Cys-Cit-Lys(DOTA)-Nif-Phe-Pro-Hyp-Ile-Nva-Cys]-NH2] (Pentanoyl-C[Cit]K(DOTA)[Phe(4-NO2)]FP[Hyp]I[Nva]C-NH2; disulfide 1-10), in assay [1], the IC50 was at most 10 nM. Moreover, the Kd in assay [2] is under 1.58 nM.
For `CCCCC(=O)N[C@H]1CSSC[C@@H](C(N)=O)NC(=O)[C@H](CCC)NC(=O)[C@H]([C@@H](C)CC)NC(=O)[C@@H]2C[C@@H](O)CN2C(=O)[C@@H]2CCCN2C(=O)[C@H](Cc2ccccc2)NC(=O)[C@H](Cc2ccc3ccccc3c2)NC(=O)[C@H](CCC(N)=O)NC(=O)[C@H](CCCNC(=N)N)NC1=O` [UPAR-259, Pent-[Cys-Arg-Gln-2Ni-Phe-Pro-Hyp-Ile-Nva-Cys]-NH2] (Pentanoyl-CRQ[2Nal]FP[Hyp]I[Nva]C-NH2; disulfide 1-10), in that order: at most 10 nM and under 1.58 nM.
Consider `CC[C@H](C)[C@@H]1NC(=O)[C@@H]2COCN2C(=O)[C@@H]2CCCN2C(=O)[C@H](Cc2ccccc2)NC(=O)[C@H](Cc2ccc(O)cc2)NC(=O)[C@H](CCC(N)=O)NC(=O)[C@H](CCCNC(N)=O)NC(=O)[C@@H](NC(=O)CCC(C)C)CSSC[C@@H](C(N)=O)NC(=O)[C@H](CC(C)C)NC1=O` [UPAR-262, iHex-[Cys-Cit-Gln-Tyr-Phe-Pro-Oxa-Ile-Leu-Cys]-NH2] ({Pentanoyl(4-Me)}-C[Cit]QYFP[Ser(ΨH,HPro)]ILC-NH2; disulfide 1-10), for which, in assay [1], the IC50 is at most 10 nM. The Kd in assay [2] is under 1.58 nM.
For `CC[C@H](C)[C@@H]1NC(=O)[C@@H](C)NC(=O)[C@@H]2CCCN2C(=O)[C@H](C)NC(=O)[C@H](Cc2ccc(O)cc2)NC(=O)[C@H](CCC(N)=O)NC(=O)[C@H](CCCNC(N)=O)NC(=O)[C@@H](NC(=O)CCC(C)C)CSSC[C@@H](C(N)=O)NC(=O)[C@H](CC(C)C)NC1=O` [UPAR-263, iHex-[Cys-Cit-Gln-Tyr-Ala-Pro-ala-Ile-Leu-Cys]-NH2] ({Pentanoyl(4-Me)}-C[Cit]QYAP[dA]ILC-NH2; disulfide 1-10), in that order: at least 126 nM and over 100 nM.
For `CCCCC(=O)N[C@H]1CSSC[C@@H](C(N)=O)NC(=O)[C@H](CCC)NC(=O)C2(CCCCC2)NC(=O)[C@@H]2C[C@@H](O)CN2C(=O)[C@@H]2CCCN2C(=O)[C@H](Cc2ccccc2)NC(=O)[C@H](Cc2ccc(O)cc2)NC(=O)[C@H](CCC(N)=O)NC(=O)[C@H](CCCNC(=N)N)NC1=O` [UPAR-264, Pent-[Cys-Arg-Gln-Tyr-Phe-Pro-Hyp-Egz-Nva-Cys]-NH2] (Pentanoyl-CRQYFP[Hyp][Ac6c][Nva]C-NH2; disulfide 1-10), in assay [1], the IC50 was at most 10 nM. In addition, the Kd in assay [2] was under 1.58 nM.
On the same counts, the results for `CCCCC(=O)N[C@H]1CSSC[C@@H](C(N)=O)NC(=O)[C@H](CCC)NC(=O)[C@H]([C@@H](C)CC)NC(=O)[C@H](CCCN)N(C)C(=O)[C@@H]2CCCN2C(=O)[C@H](Cc2ccccc2)NC(=O)[C@H](Cc2ccc(O)cc2)NC(=O)[C@H](CCCCNC(=O)CN2CCN(CC(=O)O)CCN(CC(=O)O)CCN(CC(=O)O)CC2)NC(=O)[C@H](CCCNC(N)=O)NC1=O` [UPAR-265, Pent-[Cys-Cit-Lys(DOTA)-Tyr-Phe-Pro-Nmo-Ile-Nva-Cys]-NH2] (Pentanoyl-C[Cit]K(DOTA)YFP[NMeOrn]I[Nva]C-NH2; disulfide 1-10) are 39.8 to 100 nM and over 100 nM.
On to `CCCCC(=O)N[C@H]1CSSC[C@@H](C(N)=O)NC(=O)[C@H](CCC)NC(=O)[C@H]([C@@H](C)CC)NC(=O)[C@@H]2C[C@@H](O)CN2C(=O)[C@H](CC2CCCCC2)NC(=O)[C@H](Cc2ccccc2)NC(=O)[C@H](Cc2ccc(O)cc2)NC(=O)[C@H](CCC(N)=O)NC(=O)[C@H](CCCNC(=N)N)NC1=O` [UPAR-266, Pent-[Cys-Arg-Gln-Tyr-Phe-Cha-Hyp-Ile-Nva-Cys]-NH2] (Pentanoyl-CRQYF[Cha][Hyp]I[Nva]C-NH2; disulfide 1-10), for which the IC50 in assay [1] was at most 10 nM. The Kd in assay [2] was under 1.58 nM.
